US20260262643A1, “HERBICIDAL BENZOXAZINES” (FMC CORPORATION, priority 2022, published 2026)

Columns and labels:
[1] = tested on: barnyardgrass; test: Test C postemergence; type: in vivo, Echinochloa crusgalli; details: 10 days
How it was run: (§1)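 Soil-applied (pre) and foliar (post, 1–2 leaf, 2–10 cm) sprays; surfactant-containing non-phytotoxic solvent vehicle; loam/sand substrate. Readout: visual % control at 10 d, greenhouse, versus untreated.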

[2] = tested on: corn; test: Test C postemergence; type: in vivo, Zea mays; details: 10 days
How it was run: as §1

[3] = tested on: blackgrass; test: Test C postemergence; type: in vivo, Alopecurus myosuroides; details: 10 days
How it was run: as §1

[4] = tested on: barnyardgrass; test: Test C preemergence; type: in vivo, Echinochloa crusgalli; details: for Barnyardgrass plant response rating: preemergence; for Plant response rating, Barnyardgrass: Preemergence
How it was run: as §1

[5] = tested on: ryegrass, Italian; test: Test C preemergence; type: in vivo, Lolium multiflorum; details: for Ryegrass, Italian plant response rating: preemergence; for Plant response rating, Ryegrass, Italian: Preemergence
How it was run: as §1

[6] = tested on: blackgrass; test: Test C preemergence; type: in vivo, Alopecurus myosuroides; details: for Blackgrass plant response rating: preemergence; for Plant response rating, Blackgrass: Preemergence
How it was run: as §1

[7] = tested on: rice; test: Test D flooded paddy test; type: in vivo, Oryza sativa; details: 250 g ai/ha, applied to paddy water, visual rating after 13 to 14 days, scale 0 to 100 (0 no effect, 100 complete control)
How it was run: (§2)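 2-leaf plants; flood 3 cm above soil; compound dosed into paddy water; greenhouse 13–14 d; visual rating vs controls, 0–100 (100 = complete control); dash = not tested.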

[8] = tested on: kochia; test: Test C postemergence; type: in vivo, Bassia scoparia; details: 10 days
How it was run: as §1

[9] = tested on: wheat; test: Test C preemergence; type: in vivo, Triticum aestivum; details: for Wheat plant response rating: preemergence; for Plant response rating, Wheat: Preemergence
How it was run: as §1

[10] = tested on: kochia; test: Test C preemergence; type: in vivo, Bassia scoparia; details: for Kochia plant response rating: preemergence; for Plant response rating, Kochia: Preemergence
How it was run: as §1

[11] = tested on: ragweed; test: Test C preemergence; type: in vivo, Ambrosia artemisiifolia; details: for Ragweed plant response rating: preemergence; for Plant response rating, Ragweed: Preemergence
How it was run: as §1

[12] = tested on: green foxtail; test: Test C postemergence; type: in vivo, Setaria viridis; details: 10 days
How it was run: as §1

[13] = tested on: green foxtail; test: Test C preemergence; type: in vivo, Setaria viridis; details: for Foxtail, Green plant response rating: preemergence; for Plant response rating, Foxtail, Green: Preemergence
How it was run: as §1

[14] = tested on: soybean; test: Test C preemergence; type: in vivo, Glycine max; details: for Soybean plant response rating: preemergence; for Plant response rating, Soybean: Preemergence
How it was run: as §1

[15] = tested on: ducksalad; test: Test D flooded paddy test; type: in vivo, Heteranthera limosa; details: 250 g ai/ha, applied to paddy water, visual rating after 13 to 14 days, scale 0 to 100 (0 no effect, 100 complete control)
How it was run: as §2

[16] = tested on: wheat; test: Test C postemergence; type: in vivo, Triticum aestivum; details: 10 days
How it was run: as §1

[17] = tested on: oat, wild; test: Test C preemergence; type: in vivo, Avena fatua; details: for Oat, Wild plant response rating: preemergence; for Plant response rating, Oat, Wild: Preemergence
How it was run: as §1

[18] = tested on: oat, wild; test: Test C postemergence; type: in vivo, Avena fatua; details: 10 days
How it was run: as §1

[19] = tested on: barnyardgrass; test: Test D flooded paddy test; type: in vivo, Echinochloa crus-galli; details: 250 g ai/ha, applied to paddy water, visual rating after 13 to 14 days, scale 0 to 100 (0 no effect, 100 complete control)
How it was run: as §2

[20] = tested on: ragweed; test: Test C postemergence; type: in vivo, Ambrosia artemisiifolia; details: 10 days
How it was run: as §1

[21] = tested on: soybean; test: Test C postemergence; type: in vivo, Glycine max; details: 10 days
How it was run: as §1

[22] = tested on: corn; test: Test C preemergence; type: in vivo, Zea mays; details: for Corn plant response rating: preemergence; for Plant response rating, Corn: Preemergence
How it was run: as §1

[23] = tested on: pigweed, palmer; test: Test C postemergence; type: in vivo, Amaranthus palmeri; details: 10 days
How it was run: as §1

[24] = tested on: horseweed; test: Test C postemergence; type: in vivo, Erigeron canadensis; details: 10 days
How it was run: as §1

[25] = tested on: pigweed, palmer; test: Test C preemergence; type: in vivo, Amaranthus palmeri; details: for Pigweed, Palmer plant response rating: preemergence; for Plant response rating, Pigweed, Palmer: Preemergence
How it was run: as §1

[26] = tested on: sedge, umbrella; test: Test D flooded paddy test; type: in vivo, Cyperus difformis; details: 250 g ai/ha, applied to paddy water, visual rating after 13 to 14 days, scale 0 to 100 (0 no effect, 100 complete control)
How it was run: as §2

[27] = tested on: ryegrass, Italian; test: Test C postemergence; type: in vivo, Lolium multiflorum; details: 10 days
How it was run: as §1

[28] = 500 g ai/ha, postemergence, 0 to 100 scale (0 no effect, 100 complete control)
[29] = Postemergence, 125 g ai/ha, 0 to 100 scale (0 no effect, 100 complete control)
[30] = 500 g ai/ha, 0 to 100 scale (0 no effect, 100 complete control)
[31] = 125 g ai/ha, 0 to 100 scale, 0 no effect, 100 complete control
[32] = 125 g ai/ha, postemergence, 0 to 100 scale, 0 no effect, 100 complete control
[33] = Postemergence, 500 g ai/ha, visual 0 to 100 scale (0 no effect, 100 complete control)
[34] = 500 g ai/ha, visual rating after 10 days, 0 to 100 scale (0 no effect, 100 complete control)
[35] = Test C, 125 g ai/ha, 0 to 100 scale (0 no effect, 100 complete control)

`Cc1ccc(-n2cnc(C3(C#N)CCC3)n2)cc1C(=O)N1C[C@H](C)Oc2c(Cl)cccc21` [Compound 402] was tested, and the “Plant response rating, Barnyardgrass” value [1, 28] was 50, the “Plant response rating, Barnyardgrass” value [1, 29] was 20 and the “Plant response rating, Corn” value [2, 28] was 60. For the same compound, the “Plant response rating, Corn” value [2, 29] was 10, the “Plant response rating, Blackgrass” value [3, 28] was 60 and the “Plant response rating, Blackgrass” value [3, 29] was 20. The “Barnyardgrass plant response rating” value [4, 30] was 100, the “Plant response rating, Barnyardgrass” value [4, 31] was 60 and the “Ryegrass, Italian plant response rating” value [5, 30] was 80. For the same compound, the “Plant response rating, Ryegrass, Italian” value [5, 31] was 70, the “Blackgrass plant response rating” value [6, 30] was 30 and the “Plant response rating, Blackgrass” value [6, 31] was 30. For the same compound, the “Plant response rating, Rice (Flood)” value [7] was 0, the “Plant response rating, Kochia” value [8, 28] was 90 and the “Plant response rating, Kochia” value [8, 29] was 90. The “Wheat plant response rating” value [9, 30] was 30, the “Plant response rating, Wheat” value [9, 31] was 0 and the “Kochia plant response rating” value [10, 30] was 90. The “Plant response rating, Kochia” value [10, 31] was 90, the “Ragweed plant response rating” value [11, 30] was 50 and the “Plant response rating, Ragweed” value [11, 31] was 0. For the same compound, the “Plant response rating, Foxtail, Green” value [12, 28] was 90, the “Plant response rating, Foxtail, Green” value [12, 29] was 70 and the “Foxtail, Green plant response rating” value [13, 30] was 100. The “Plant response rating, Foxtail, Green” value [13, 31] was 100, the “Soybean plant response rating” value [14, 30] was 40 and the “Plant response rating, Soybean” value [14, 31] was 20. For the same compound, the “Plant response rating, Ducksalad (Flood)” value [15] was 45, the “Plant response rating, Wheat” value [16, 29] was 20 and the “Oat, Wild plant response rating” value [17, 30] was 40. For the same compound, the “Plant response rating, Oat, Wild” value [17, 31] was 20, the “Plant response rating, Oat, Wild” value [18, 28] was 20 and the “Plant response rating, Oat, Wild” value [18, 29] was 0. The “Plant response rating, Barnyardgrass (Flood)” value [19] was 25, the “Plant response rating, Ragweed” value [20, 29] was 90 and the “Plant response rating, Soybean” value [21, 29] was 40. The “Corn plant response rating” value [22, 30] was 20, the “Plant response rating, Corn” value [22, 31] was 0 and the “Plant response rating, Pigweed, Palmer” value [23, 28] was 100. For the same compound, the “Plant response rating, Pigweed, Palmer” value [23, 29] was 90, the “Plant response rating, Horseweed” value [24, 28] was 70 and the “Plant response rating, Horseweed” value [24, 29] was 50. For the same compound, the “Pigweed, Palmer plant response rating” value [25, 30] was 100, the “Plant response rating, Pigweed, Palmer” value [25, 31] was 100 and the “Plant response rating, Sedge, Umbrella (Flood)” value [26] was 25. The “Plant response rating, Ryegrass, Italian” value [27, 29] was 30.
For `COc1cc(C(=O)N2C[C@H](C)Oc3c(Cl)cccc32)cc(-n2cnc(C)n2)c1` [Compound 215], the “Plant response rating, Barnyardgrass” value [1, 32] was 60, the “Plant response rating, Barnyardgrass” value [1, 33] was 70 and the “Plant response rating, Corn” value [2, 32] was 70. The “Plant response rating, Corn” value [2, 33] was 90, the “Plant response rating, Blackgrass” value [3, 32] was 90 and the “Plant response rating, Blackgrass” value [3, 33] was 90. For the same compound, the “Plant response rating, Barnyardgrass” value [4, 34] was 100, the “Barnyardgrass plant response rating” value [4, 35] was 80 and the “Plant response rating, Ryegrass, Italian” value [5, 34] was 100. The “Ryegrass, Italian plant response rating” value [5, 35] was 90, the “Plant response rating, Blackgrass” value [6, 34] was 90 and the “Blackgrass plant response rating” value [6, 35] was 70. For the same compound, the “Plant response rating, Rice (Flood)” value [7] was 55, the “Plant response rating, Kochia” value [8, 32] was 80 and the “Plant response rating, Kochia” value [8, 33] was 90. The “Plant response rating, Wheat” value [9, 34] was 90, the “Wheat plant response rating” value [9, 35] was 20 and the “Plant response rating, Kochia” value [10, 34] was 100. For the same compound, the “Kochia plant response rating” value [10, 35] was 90, the “Plant response rating, Ragweed” value [11, 34] was 30 and the “Ragweed plant response rating” value [11, 35] was 0. For the same compound, the “Plant response rating, Foxtail, Green” value [12, 32] was 90, the “Plant response rating, Foxtail, Green” value [12, 33] was 90 and the “Plant response rating, Foxtail, Green” value [13, 34] was 100. For the same compound, the “Foxtail, Green plant response rating” value [13, 35] was 100, the “Plant response rating, Soybean” value [14, 34] was 100 and the “Soybean plant response rating” value [14, 35] was 80. The “Plant response rating, Ducksalad (Flood)” value [15] was 100, the “Plant response rating, Wheat” value [16, 32] was 30 and the “Plant response rating, Wheat” value [16, 33] was 70. For the same compound, the “Plant response rating, Oat, Wild” value [17, 34] was 90, the “Oat, Wild plant response rating” value [17, 35] was 50 and the “Plant response rating, Oat, Wild” value [18, 32] was 30. The “Plant response rating, Oat, Wild” value [18, 33] was 50, the “Plant response rating, Barnyardgrass (Flood)” value [19] was 50 and the “Plant response rating, Ragweed” value [20, 32] was 60. For the same compound, the “Plant response rating, Ragweed” value [20, 33] was 70, the “Plant response rating, Soybean” value [21, 32] was 100 and the “Plant response rating, Soybean” value [21, 33] was 100. For the same compound, the “Plant response rating, Corn” value [22, 34] was 60, the “Corn plant response rating” value [22, 35] was 30 and the “Plant response rating, Pigweed, Palmer” value [23, 32] was 90. The “Plant response rating, Pigweed, Palmer” value [23, 33] was 100, the “Plant response rating, Horseweed” value [24, 32] was 0 and the “Plant response rating, Horseweed” value [24, 33] was 70. The “Plant response rating, Pigweed, Palmer” value [25, 34] was 100, the “Pigweed, Palmer plant response rating” value [25, 35] was 100 and the “Plant response rating, Sedge, Umbrella (Flood)” value [26] was 100. For the same compound, the “Plant response rating, Ryegrass, Italian” value [27, 32] was 70 and the “Plant response rating, Ryegrass, Italian” value [27, 33] was 90.
